Test results as given in patent publication US20100068698A1, “PRODUCTION OF […] C VIRUS PARTICLES IN CELL CULTURE” (priority 2008, published 2010).

Test system: infectious H77S (GT 1a virus)
Assay: HCV infectious virus EC50 determination (HCV RNA by quantitative RT-PCR in infected Rof-0c cells)
Type: cell-based, Hepatitis C virus genotype 1a
Conditions: Hepatitis C virus, GT1A, 72 h, 96-well plate, virus stock grown in human serum, three days post-infection, read-out: potency against infectious H77S (EC50, 50% reduction in HCV RNA)
Description: FIG. 6. Potency of an NS5B inhibitor and HCV entry inhibitor against the GT 1a infectious virus. Rof-0c cells were infected with either H77S or the chimera H77S RO-51-5B. At the time of infection, the cells were treated with a serial dilution of either the NS5B inhibitor HCV-796 or the HCV entry inhibitor JS81. After three days, the intracellular RNA was purified and used to determine the amount of HCV RNA.
The presence of HCV RNA was examined after purification of total cellular RNA using the PerfectPure RNA 96 Cell Kit (5 Prime) according to the manufacturer's instructions. To quantitate the amount of HCV RNA, cDNA was amplified using either the Taqman Universal PCR mix (Applied Biosystems) or the TaqMan EZ RT-PCR kit (Applied Biosystems) with a set of primers and probe complementary to a region within the 5′ untranslated region (UTR). The primer and probe sequences are: (HCV 20F) […] (SEQ ID NO:4); (HCV 114R) […] (SEQ ID NO:5); (HCV P43) FAM-[…]-TAMRA (SEQ ID NO:6).
The sensitivity of infectious HCV to antivirals was determined using the genotype 1a strains H77S or H77S RO-51-5B. […] Three days post-infection, the HCV RNA was quantified as described above. […]
Potency of HCV inhibitors against GT1a virus. […] The HCV stocks were analyzed to determine if they would be sufficient to measure the potency of HCV inhibitors. […]

CNC(=O)c1c(-c2ccc(F)cc2)oc2cc(N(CCO)S(C)(=O)=O)c(C3CC3)cc12 [HCV-796]
EC50: 0.032 ± 0.004 µM
